Measurements reported in patent US20100093760A1, “METHODS FOR IDENTIFYING COMPOUNDS THAT MODULATE CELL SIGNALING AND METHODS EMPLOYING SUCH COMPOUNDS” (The General Hospital Corporation, priority 2006, published 2010).
Read-outs that look alike come from different tables or passages of the source.

Test system: zebrafish embryos
Assay type: in vivo
Conditions: for Mild % / Mild dorsalization, number of embryos / Moderate % / Moderate dorsalization, number of embryos / Normal % / Normal, number of embryos / Severe % / Severe dorsalization, number of embryos / % Mild / % Moderate-Severe / Mild, number of embryos / Moderate-Severe, number of embryos / Total % Dorsalized: scored at 48 hpf
[1] = 10 μM, continuous exposure from 2 hpf
[2] = 10 μM, continuous exposure from 4 hpf
[3] = 10 μM, continuous exposure from 6 hpf
[4] = 10 μM, continuous exposure from 8 hpf
[5] = 10 μM, continuous exposure from 10 hpf
[6] = 10 μM, interval exposure 2-4 hpf
[7] = 10 μM, interval exposure 2-6 hpf
[8] = 10 μM, interval exposure 2-8 hpf
[9] = 10 μM, interval exposure 4-8 hpf
[10] = 10 μM, interval exposure 6-8 hpf
[11] = dorsomorphin 10 μM, treatment at 3 hpf

Structure (SMILES): c1cc(-c2cnn3cc(-c4ccc(OCCN5CCCCC5)cc4)cnc23)ccn1 [Compound C/Dorsomorphin]
- toxicity (10 μM): No toxicity was observed
- Mild % [1]: 0%
- Mild dorsalization, number of embryos [1]: 0
- Moderate % [1]: 0%
- Moderate dorsalization, number of embryos [1]: 0
- Normal % [1]: 0%
- Normal, number of embryos [1]: 0
- Severe % [1]: 100%
- Severe dorsalization, number of embryos [1]: 20
- Mild % [2]: 0%
- Mild dorsalization, number of embryos [2]: 0
- Moderate % [2]: 100%
- Moderate dorsalization, number of embryos [2]: 19
- Normal % [2]: 0%
- Normal, number of embryos [2]: 0
- Severe % [2]: 0%
- Severe dorsalization, number of embryos [2]: 0
- Mild % [3]: 22%
- Mild dorsalization, number of embryos [3]: 4
- Moderate % [3]: 78%
- Moderate dorsalization, number of embryos [3]: 14
- Normal % [3]: 0%
- Normal, number of embryos [3]: 0
- Severe % [3]: 0%
- Severe dorsalization, number of embryos [3]: 0
- Mild % [4]: 85%
- Mild dorsalization, number of embryos [4]: 17
- Moderate dorsalization, number of embryos [4]: 0
- Normal, number of embryos [4]: 3
- Severe % [4]: 0%
- Severe dorsalization, number of embryos [4]: 0
- Mild % [5]: 0%
- Mild dorsalization, number of embryos [5]: 0
- Moderate % [5]: 0%
- Moderate dorsalization, number of embryos [5]: 0
- Normal % [5]: 100%
- Normal, number of embryos [5]: 20
- Severe % [5]: 0%
- Severe dorsalization, number of embryos [5]: 0
- dorsalization phenotype (10 μM, continuous from 2 hpf): severe dorsalization with high penetrance
- dorsalization phenotype (10 μM, exposure from 4-8 and 6-8 hpf): mild to moderate dorsalization
- Mild % [6]: 10%
- Mild dorsalization, number of embryos [6]: 2
- Moderate % [6]: 90%
- Moderate dorsalization, number of embryos [6]: 18
- Normal % [6]: 0%
- Normal, number of embryos [6]: 0
- Severe dorsalization, number of embryos [6]: 0
- Mild % [7]: 17%
- Mild dorsalization, number of embryos [7]: 3
- Moderate % [7]: 44%
- Moderate dorsalization, number of embryos [7]: 8
- Normal % [7]: 0%
- Normal, number of embryos [7]: 0
- Severe % [7]: 39%
- Severe dorsalization, number of embryos [7]: 7
- Mild % [8]: 0%
- Mild dorsalization, number of embryos [8]: 0
- Moderate % [8]: 0%
- Moderate dorsalization, number of embryos [8]: 0
- Normal % [8]: 0%
- Normal, number of embryos [8]: 0
- Severe % [8]: 100%
- Severe dorsalization, number of embryos [8]: 20
- Mild % [9]: 65%
- Mild dorsalization, number of embryos [9]: 15
- Moderate % [9]: 35%
- Normal % [9]: 0%
- Normal, number of embryos [9]: 0
- Severe % [9]: 0%
- Severe dorsalization, number of embryos [9]: 0
- Mild % [10]: 95%
- Mild dorsalization, number of embryos [10]: 19
- Moderate % [10]: 5%
- Moderate dorsalization, number of embryos [10]: 1
- Normal % [10]: 0%
- Normal, number of embryos [10]: 0
- Severe % [10]: 0%
- Severe dorsalization, number of embryos [10]: 0
- dorsalization phenotype (10 μM, treated at 2-4 hpf): severe dorsalization defects
- dorsalization phenotype (10 μM, treated at 6-8 hpf): mild dorsalization
- dorsalization phenotype (10 μM, treatment at 10 hpf and beyond): did not induce dorsalization
- nonspecific toxicity (5-20 uM): absence of other nonspecific toxicity
- dorsalization phenotype (5 to 10 μM from 3 hpf): progressively more severe dorsalization in a progressively higher percentage of embryos
- dorsalization phenotype (10 (unit not given) from 3 hpf): moderate or severe dorsalization in nearly all embryos examined
- % Mild (DM 0.2 μM from 3 hpf): 0%
- % Moderate-Severe (DM 0.2 μM from 3 hpf): 0%
- Mild, number of embryos (DM 0.2 μM from 3 hpf): 0
- Moderate-Severe, number of embryos (DM 0.2 μM from 3 hpf): 0
- Normal, number of embryos (DM 0.2 μM from 3 hpf): 60
- Total % Dorsalized (DM 0.2 μM from 3 hpf): 0%
- % Mild (DM 0.5 μM from 3 hpf): 0%
- % Moderate-Severe (DM 0.5 μM from 3 hpf): 0%
- Mild, number of embryos (DM 0.5 μM from 3 hpf): 0
- Moderate-Severe, number of embryos (DM 0.5 μM from 3 hpf): 0
- Normal, number of embryos (DM 0.5 μM from 3 hpf): 59
- Total % Dorsalized (DM 0.5 μM from 3 hpf): 0%
- % Mild (DM 1 μM from 3 hpf): 0%
- % Moderate-Severe (DM 1 μM from 3 hpf): 0%
- Mild, number of embryos (DM 1 μM from 3 hpf): 0
- Moderate-Severe, number of embryos (DM 1 μM from 3 hpf): 0
- Normal, number of embryos (DM 1 μM from 3 hpf): 60
- Total % Dorsalized (DM 1 μM from 3 hpf): 0%
- % Mild (DM 2 μM from 3 hpf): 0%
- % Moderate-Severe (DM 2 μM from 3 hpf): 0%
- Mild, number of embryos (DM 2 μM from 3 hpf): 0
- Normal, number of embryos (DM 2 μM from 3 hpf): 60
- Total % Dorsalized (DM 2 μM from 3 hpf): 0%
- % Mild (DM 5 μM from 3 hpf): 19%
- % Moderate-Severe (DM 5 μM from 3 hpf): 0%
- Mild, number of embryos (DM 5 μM from 3 hpf): 11
- Moderate-Severe, number of embryos (DM 5 μM from 3 hpf): 0
- Normal, number of embryos (DM 5 μM from 3 hpf): 48
- Total % Dorsalized (DM 5 μM from 3 hpf): 19%
- % Mild (DM 7.5 μM from 3 hpf): 58%
- % Moderate-Severe (DM 7.5 μM from 3 hpf): 42%
- Mild, number of embryos (DM 7.5 μM from 3 hpf): 35
- Moderate-Severe, number of embryos (DM 7.5 μM from 3 hpf): 25
- Normal, number of embryos (DM 7.5 μM from 3 hpf): 0
- Total % Dorsalized (DM 7.5 μM from 3 hpf): 100%
- % Mild (DM 10 μM from 3 hpf): 3%
- % Moderate-Severe (DM 10 μM from 3 hpf): 98%
- Mild, number of embryos (DM 10 μM from 3 hpf): 1
- Moderate-Severe, number of embryos (DM 10 μM from 3 hpf): 39
- Normal, number of embryos (DM 10 μM from 3 hpf): 0
- Total % Dorsalized (DM 10 μM from 3 hpf): 100%
- % Dorsalized [11]: 100%
- Dorsalized, number of embryos [11]: 26
- Early lethality, number of embryos [11]: 3
- Total survivors [11]: 26
- dorsalization and toxicity (same conditions as C75 (3 hpf)): induced dorsalization with high penetrance and minimal toxicity
- dorsalization phenotype (≦2 μM from 3 hpf): did not elicit dorsalization
- cyclopia (phenotype of defective TGF-β signaling) (≧5 μM at ≦8 hpf): did not result in cyclopia
